Data on six compounds can be found in patent US6156700A, “3-(1,2-Benzisothiazol- and isoxazol-5-yl)-2,4(1H,3H)-pyrimidinedione or thione and 3-(1,2-benzisothiazol- and isoxazol-5-yl)-4(3H)-pyrimidinone or thione herbicidal agents” (American Cyanmid Company, priority 1998, dated 2000).

Conditions in all cases: 0.0630 kg/ha
In experiment [1] the test system is Foxtail, Green, Setaria viridis. Nature of the experiment: Postemergence herbicidal evaluation, SETVI. In kind it is in vivo, (L.) Beau. An outline of the steps: (§1)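 Rates of about 0.0157–0.500 kg/ha were delivered through a 40 psi spray nozzle to seedlings grown around two weeks, using a 50/50 acetone/water vehicle with 0.5% TWEEN 20. A 0–9 visual score versus control followed 4–5 weeks later.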

The subject of experiment [2] is Velvetleaf, Abutilon theophrasti. Nature of the experiment: Postemergence herbicidal evaluation, ABUTH. It is filed as in vivo, Medic. A digest of the protocol: as §1
The subject of experiment [3] is Lambsquarters, Common, Chenopodium album. The experiment can be described thus: Postemergence herbicidal evaluation, CHEAL. It is filed as in vivo, L. An outline of the steps: as §1
The test system of another experiment is Galium, Galium aparine. The experiment can be described thus: Postemergence herbicidal evaluation, GALAP. In kind it is in vivo. An outline of the steps:
as §1

The test system of experiment [4] is Ragweed, Common, Ambrosia artemisifolia. Nature of the experiment: Postemergence herbicidal evaluation, AMBEL. It is filed as in vivo, L. A digest of the protocol: as §1
The subject of experiment [5] is Barnyardgrass, Echinochloa crus-galli. Nature of the experiment: Postemergence herbicidal evaluation, ECHCG. It is filed as in vivo, (L.) Beau. An outline of the steps:
as §1

Experiment [6] relates to Sicklepod, Cassia obtusifolia. The experiment can be described thus: Postemergence herbicidal evaluation, CASOB. In kind it is in vivo, L. A digest of the protocol: as §1
Experiment [7] concerns Rice, Tebonnet, Oryza sativa. The experiment can be described thus: Postemergence herbicidal evaluation, ORYSAT. In kind it is in vivo, (L.) Tebonnet. A digest of the protocol:
as §1

Experiment [8] concerns Wheat, Winter, cv Riband, Triticum aestivum. The experiment can be described thus: Postemergence herbicidal evaluation, TRZAWR. In kind it is in vivo. An outline of the steps: as §1
For experiment [9], the system named is Soybean, Williams, Glycine max. The experiment can be described thus: Postemergence herbicidal evaluation, GLXMAW. In kind it is in vivo, (L.) Merr. cv Williams. A digest of the protocol: as §1
The test system of experiment [10] is Morningglory, Ivyleaf, Ipomoea hederacea. Nature of the experiment: Postemergence herbicidal evaluation, IPOHE. In kind it is in vivo, (L.) Jacq. An outline of the steps:
as §1

In another experiment the test system is Corn, Field, Zea mays. The experiment can be described thus: Postemergence herbicidal evaluation, ZEAMX. In kind it is in vivo, L. A digest of the protocol: as §1

Regarding `Cc1ccc(OCC(=O)OC(C)(C)C)c(-c2nsc3ccc(-n4c(=O)cc(C(F)(F)F)n(C)c4=O)cc23)c1` [Compound 68, tert-Butyl {{2-{5-[3,6-dihydro-3-methyl-2,6-dioxo-4-(trifluoromethyl)-1(2H)-pyrimidinyl]-1,2-benzisothiazol-3-yl}-p-tolyl}oxy}acetate], the “herbicide rating (0-9)” value in experiment [1] amounted to 9.0; in [2] it was 6.0; in experiment [3], 9.0; with Galium, Galium aparine it was 2.0; in [4], 5.0; in experiment [5] it was 5.0. In addition, the “herbicide rating (0-9)” value amounted to 9.0 in [6]; 2.0 in experiment [7]; 3.5 in experiment [8]; 5.5 in experiment [9]; 9.0 in [10]; 5.0 in the experiment with Corn, Field, Zea mays.
Turning to `Cc1ccc(OCC(=O)OCCN(C)C)c(-c2nsc3ccc(-n4c(=O)cc(C(F)(F)F)n(C)c4=O)cc23)c1` [Compound 70, 2-(Dimethylamino)ethyl {{2-[5-[3,6-dihydro-3-methyl-2,6-dioxo-4-(trifluoromethyl)-1(2H)-pyrimidinyl]-1,2-benzisothiazol-3-yl}-p-tolyl}oxy}acetate], the “herbicide rating (0-9)” value was 9.0 in [1]; 9.0 in experiment [2]; 9.0 in experiment [3]; 5.0 in the experiment on Galium, Galium aparine; 9.0 in experiment [4]; 9.0 in [5]. In addition, the “herbicide rating (0-9)” value in experiment [6] came out at 9.0; in experiment [7] it was 3.0; in experiment [8], 5.0; in experiment [9] it was 8.0; in experiment [10], 9.0; in the experiment with Corn, Field, Zea mays, 6.0.
`Cc1ccc(OCC(=O)OC2CCCC2)c(-c2nsc3ccc(-n4c(=O)cc(C(F)(F)F)n(C)c4=O)cc23)c1` [Compound 84, Cyclopentyl {{2-{5-[3,6-dihydro-3-methyl-2,6-dioxo-4-(trifluoromethyl)-1(2H)-pyrimidinyl)-1,2-benzisothiazol-3-yl}-p-tolyl}oxy}acetate]: the “herbicide rating (0-9)” value is 9.0 in experiment [1]; 9.0 in experiment [2]; 9.0 in experiment [3]; 9.0 with Galium, Galium aparine; 9.0 in experiment [4]; 9.0 in experiment [5]. For the same compound, the “herbicide rating (0-9)” value turned out to be 4.0 in experiment [6]; 8.0 in experiment [7]; 8.0 in experiment [8]; 8.0 in experiment [9]; 9.0 in experiment [10]; 7.5 in the experiment on Corn, Field, Zea mays.
For the compound `CC#CC(C)OC(=O)COc1ccc(C)cc1-c1nsc2ccc(-n3c(=O)cc(C(F)(F)F)n(C)c3=O)cc12` (stereo not drawn) [Compound 76, 1-Methyl-2-butynyl {{2-{5-[3,6-dihydro-3-methyl-2,6-dioxo-4-(trifluoromethyl)-1(2H)-pyrimidinyl]-1,2-benzisothiazol-3-yl}-p-tolyl}oxy}acetate], the “herbicide rating (0-9)” value in experiment [1] was 9.0; in experiment [2], 9.0; in experiment [3] it was 9.0; with Galium, Galium aparine, 9.0; in experiment [4], 9.0; in experiment [5] it was 9.0. In addition, the “herbicide rating (0-9)” value was found to be 9.0 in experiment [6]; 6.0 in [7]; 9.0 in experiment [8]; 9.0 in experiment [9]; 9.0 in experiment [10]; 8.0 with Corn, Field, Zea mays.
With `C=CCOc1ccc(C)cc1-c1nsc2ccc(-n3c(=O)cc(C(F)(F)F)n(C)c3=O)cc12` [Compound 65, 3-{3-[6-(Allyloxy)-m-tolyl)-1,2-benzisothiazol-5-yl}-1-methyl-6-(trifluoromethyl)-2,4(1H,3H)-pyrimidinedione], the “herbicide rating (0-9)” value in experiment [1] came to 9.0; in experiment [2], 9.0; in experiment [3], 9.0; in the experiment with Galium, Galium aparine it was 4.0; in experiment [4] it was 9.0; in experiment [5] it was 1.0. In addition, the “herbicide rating (0-9)” value in experiment [6] amounted to 9.0; in [7] it was 1.5; in [8] it was 3.5; in experiment [9], 5.5; in [10] it was 9.0; in the experiment on Corn, Field, Zea mays, 5.5.
For `CC#CCOC(=O)C(C)Oc1ccc(C)cc1-c1nsc2ccc(-n3c(=O)cc(C(F)(F)F)n(C)c3=O)cc12` (stereo not drawn) [Compound 80, 2-Butynyl 2-{{2-{5-[3,6-dihydro-3-methyl-2,6-dioxo-4-(trifluoromethyl)-1(2H)-pyrimidinyl]-1,2-benzisothiazol-3-yl}-p-tolyl}oxy}propionate], the “herbicide rating (0-9)” value in experiment [1] was found to be 9.0; in [2] it was 9.0; in experiment [3], 9.0; in the experiment with Galium, Galium aparine, 9.0; in experiment [4], 9.0; in experiment [5] it was 9.0. Besides, the “herbicide rating (0-9)” value in experiment [6] was 7.0; in [7], 7.5; in experiment [8] it was 8.0; in experiment [9] it was 7.5; in [10], 9.0; with Corn, Field, Zea mays it was 7.5.
